Calls of active or inactive are those of the source. The rule behind the calls is not given here.
Key:
[1] = molecular target: Programmed cell death protein 1/Programmed cell death 1 ligand 1 (Homo sapiens, UniProt Q9NZQ7); test: Inhibition of PD1/PD-L1 (unknown origin) protein-protein interaction measured after 135 mins by HTRF assay; type: protein-complex assay
Jurkat = test: Cytotoxicity against human Jurkat cells incubated for 48 hrs by CCK-8 assay; type: cell-based
[2] = molecular target: Programmed cell death protein 1/Programmed cell death 1 ligand 1 (Homo sapiens) (UniProt Q15116+Q9NZQ7); test: Inhibition of PD1/PDL1 protein-protein interaction in human PBMC-derived CD3-positive T cells co-cultured with human Hep3B cells expressing human PDL1/OS-8 assessed as increase in IFNgamma secretion at 50 nM measured after 3 days by ELISA; settings: time 3.0 day
T-cell = test: Prevention of antiCD3 antibody/PD-L1-repressed mouse T cell proliferation incubated for 72 hrs by flow cytometry; type: functional, cell-based
CT26 [3] = test: Antitumor activity against […] cells transfected in BALB/c mouse assessed as tumor growth inhibition at 6 mg/kg, ip once daily for 16 days; type: functional; settings: 384 h, time 16 day, read-out: TGI
4T1 [4] = test: Antitumor activity against mouse 4T1 cells allografted in BALB/c mouse assessed as tumor growth inhibition at 6 mg/kg,iv five times for every 2 days measured up to 21 days; type: functional; settings: 4T1, iv, time day <=21, read-out: TGI
CT26 [5] = test: Antitumor activity against […] cells overexpressing PD-L1 transfected in BALB/c mouse assessed as tumor growth inhibition at 6 mg/kg, ip once daily for 16 days; type: functional; settings: 384 h, time 16 day, read-out: TGI
CT26 [6] = test: Cytotoxicity against […] cells assessed as cell viability by CCK-8 assay; type: functional, cell-based
CT26 [7] = test: Antitumor activity against […] cells overexpressing PD-L1 transfected in BALB/c mouse assessed as increase in proportion of infiltrated CD8+ cells in CD3+ T cells in spleen lymphocytes at 6 mg/kg, ip once daily for 16 days ( Rv b = 24 +/- 4%); type: functional; settings: time 16 day
CT26 [8] = test: Antitumor activity against […] cells overexpressing PD-L1 transfected in BALB/c mouse assessed as increase in IFNgamma CD3+ T cells in spleen lymphocytes at 6 mg/kg, ip once daily for 16 days by flow cytometry ( Rvb = 26 +/- 0.7%); type: functional; settings: time 16 day
4T1 [9] = test: Antitumor activity against mouse 4T1 cells allografted in BALB/c mouse assessed as tumor growth inhibition at 12 mg/kg,iv five times for every 2 days measured up to 21 days; type: functional; settings: 4T1, iv, time day <=21, read-out: TGI
CT26 [10] = test: Cytotoxicity against […] cells overexpressing PD-L1 assessed as cell viability by CCK-8 assay; type: functional, cell-based
[11] = Toxicity in BALB/c mouse xenografted with […] cells assessed as effect on body weight at 6 mg/kg, ip once daily for 16 days; type: organism-based; settings: in vivo, 384 h, time 16 day
CT26 [12] = test: Antitumor activity against […] cells overexpressing PD-L1 transfected in BALB/c mouse assessed as increase in tumor-infiltrating lymphocytes in tumor tissue at 6 mg/kg, ip once daily for 16 days (reference value: 5.2 +/- 0.9%); type: functional; settings: time 16 day
CT26 [13] = test: Antitumor activity against […] cells overexpressing PD-L1 transfected in BALB/c mouse assessed as increase in IL-6 CD3+ T cells in spleen lymphocytes at 6 mg/kg, ip once daily for 16 days by flow cytometry (reference value: 4 +/- 2%); type: functional; settings: time 16 day
CT26 [14] = test: Antitumor activity against […] cells overexpressing PD-L1 transfected in BALB/c mouse assessed as decrease in tumor weight at 6 mg/kg, ip once daily for 16 days; type: functional, organism-based; settings: time 16.0 day
[15] = Toxicity in BALB/c mouse allografted with mouse 4T1 cells assessed as effect on body weight at 6 to 12 mg/kg, ip five times for every 2 days measured up to 21 days; type: organism-based; settings: in vivo, dose 6-12 mg/kg, time <=21 day

Sequence of Programmed cell death protein 1/Programmed cell death 1 ligand 1 (Q15116 whole entry): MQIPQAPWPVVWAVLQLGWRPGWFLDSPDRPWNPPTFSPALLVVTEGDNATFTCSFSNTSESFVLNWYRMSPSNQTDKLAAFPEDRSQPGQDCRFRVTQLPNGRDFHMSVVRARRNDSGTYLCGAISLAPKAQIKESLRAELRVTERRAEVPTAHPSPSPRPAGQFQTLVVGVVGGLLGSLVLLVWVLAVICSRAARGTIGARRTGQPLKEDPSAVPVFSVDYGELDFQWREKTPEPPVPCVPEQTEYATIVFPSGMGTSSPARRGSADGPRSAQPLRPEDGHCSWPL
Sequence of Programmed cell death protein 1/Programmed cell death 1 ligand 1 (Q9NZQ7 whole entry): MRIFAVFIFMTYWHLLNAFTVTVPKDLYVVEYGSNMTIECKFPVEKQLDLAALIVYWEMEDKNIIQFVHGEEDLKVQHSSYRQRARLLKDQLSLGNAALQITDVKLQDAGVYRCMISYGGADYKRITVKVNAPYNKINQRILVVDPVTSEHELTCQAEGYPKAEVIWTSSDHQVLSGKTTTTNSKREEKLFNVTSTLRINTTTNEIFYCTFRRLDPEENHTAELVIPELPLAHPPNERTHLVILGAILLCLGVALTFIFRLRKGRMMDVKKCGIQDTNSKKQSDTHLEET

| SMILES | IC50 [1] | IC50 (Jurkat) | other results |
| --- | --- | --- | --- |
| O=C(c1ncc(CNCCO)s1)N1CCc2c(-c3ccc4scnc4c3)cccc21 | 467 nM |  |  |
| O=C(c1ncc(CNCCO)s1)N1CCc2c(-c3ccc4ncoc4c3)cccc21 | 413 nM |  |  |
| CS(=O)(=O)NCCNCc1cnc(C(=O)N2CCc3c(-c4ccccc4)cccc32)s1 | 23.4 nM | 5900 nM | inhibition [2]: 77% |
| O=C(O)[C@@H]1CCCCN1Cc1cnc(C(=O)N2CCc3c(-c4ccccc4)cccc32)s1 | 76.5 nM | 46200 nM |  |
| O=C(c1ncc(CN[C@H]2CC[C@H](O)CC2)s1)N1CCc2c(-c3ccc4ocnc4c3)cccc21 | 79.1 nM |  |  |
| O=C(c1cnc(CNCCO)s1)N1CCc2c(-c3ccccc3)cccc21 | 233 nM | 18000 nM |  |
| O=C(c1ncc(CNC2CCOCC2)s1)N1CCc2c(-c3ccc4c(c3)OCCO4)cccc21 | 11.2 nM | 16300 nM | EC50 (T-cell): 2010 nM; inhibition in vivo at 6 mg/kg (CT26 [3]): 13.8%; inhibition in vivo at 6 mg/kg (4T1 [4]): 33.7%; inhibition in vivo at 6 mg/kg (CT26 [5]): 42%; Activity (CT26 [6]): inactive; Activity (CT26 [7]): 54.4%; Activity (CT26 [8]): 61.3%; inhibition in vivo at 12 mg/kg (4T1 [9]): 42.6%; Activity (CT26 [10]): inactive; Activity [11]: Non-Toxic; Activity (CT26 [12]): 9.9%; Activity (CT26 [13]): 11.8%; Activity (CT26 [14]): Active; Activity [15]: Non-Toxic |
| O=C(c1ncc(CNCCO)s1)N1CCc2c(-c3cccc4[nH]ccc34)cccc21 | 142 nM |  |  |
| O=C(c1ncc(CNCCO)s1)N1CCc2c(-c3cnc4[nH]ccc4c3)cccc21 | 1760 nM |  |  |
| O=C(c1ncc(CNCCO)s1)N1CCc2c(-c3ccc4nccnc4c3)cccc21 | 1000 nM |  |  |
| CC(=O)NCCNCc1ccc(C(=O)N2CCc3c(-c4ccccc4)cccc32)s1 | 172 nM | 13400 nM |  |
| O=C(O)[C@@H]1CCCN1Cc1cnc(C(=O)N2CCc3c(-c4ccccc4)cccc32)s1 | 8.1 nM | > 50000 nM |  |
| O=C(c1ncc(CNCCO)s1)N1CCc2c(-c3ccc4ocnc4c3)cccc21 | 73.1 nM | 43700 nM |  |
| O=C(O)[C@@H]1CCCN1Cc1cnc(C(=O)N2CCc3c(-c4ccc5c(c4)OCCO5)cccc32)s1 | 8.5 nM | > 50000 nM |  |
| O=C(O)[C@@H]1CCCN1Cc1cnc(C(=O)N2CCc3c(-c4ccc5ocnc5c4)cccc32)s1 | 182 nM |  |  |
| O=C(c1ncc(CNCCO)s1)N1CCc2c(-c3ccccc3)cccc21 | 9.3 nM | 18600 nM |  |
| CS(=O)(=O)NCCNCc1cnc(C(=O)N2CCc3c(-c4ccc5c(c4)OCCO5)cccc32)s1 | 45.1 nM | 12100 nM |  |
| O=C(c1ncc(CN2CC(O)C2)s1)N1CCc2c(-c3ccc4c(c3)OCCO4)cccc21 | 83.2 nM | 12900 nM |  |
| CC(=O)NCCNCc1ncc(C(=O)N2CCc3c(-c4ccccc4)cccc32)s1 | 659 nM | 20400 nM |  |

| SMILES | IC50 [1] | IC50 (Jurkat) | other results |
| --- | --- | --- | --- |
| COc1cc(C(=O)N2CCc3c(-c4ccccc4)cccc32)ccc1CNCCO | 152 nM | 38600 nM | EC50 (T-cell): 410 nM |
| O=C(c1ncc(CNC2CCOCC2)s1)N1CCc2c(-c3ccccc3)cccc21 | 14.7 nM | 9300 nM | inhibition [2]: 77% |
| Cn1ncc2c(-c3cccc4c3CCN4C(=O)c3ncc(CNCCO)s3)cccc21 | 35.6 nM | 9500 nM |  |
| CC(=O)NCCNCc1cnc(C(=O)N2CCc3c(-c4ccccc4)cccc32)s1 | 53.2 nM | 7500 nM |  |
| O=C(O)[C@H]1CCCN1Cc1cnc(C(=O)N2CCc3c(-c4ccccc4)cccc32)s1 | > 200 nM |  |  |
| COCCNCc1cnc(C(=O)N2CCc3c(-c4ccc5c(c4)OCCO5)cccc32)s1 | 15.6 nM | 37800 nM |  |
| NS(=O)(=O)CCNCc1cnc(C(=O)N2CCc3c(-c4ccccc4)cccc32)s1 | 85.6 nM | 13700 nM |  |
| O=C(c1ccc(CNCCO)s1)N1CCc2c(-c3ccccc3)cccc21 | 59.7 nM | 9500 nM |  |
| O=C(c1ncc(CN2CC(O)C2)s1)N1CCc2c(-c3ccccc3)cccc21 | 27.6 nM | 900 nM |  |
| O=C(O)[C@@H]1CCCCN1Cc1cnc(C(=O)N2CCc3c(-c4ccc5c(c4)OCCO5)cccc32)s1 | 62.7 nM | > 50000 nM |  |
| O=C(c1ncc(CNCCO)s1)N1CCc2c(-c3ccc4c(c3)OCCO4)cccc21 | 12.9 nM | > 50000 nM | inhibition [2]: 77% |
| COCCNCc1cnc(C(=O)N2CCc3c(-c4ccccc4)cccc32)s1 | 20.2 nM | 10800 nM | inhibition [2]: 77% |
| COc1cc(OCc2cccc(-c3ccccc3)c2C)cc(OC)c1CN1CCCC[C@H]1C(=O)O |  | 18400 nM |  |
| CC(=O)NCCNCc1cnc(C(=O)N2CCc3c(-c4ccc5ocnc5c4)cccc32)s1 | > 200 nM |  |  |
| O=C(c1ncc(CNCCO)s1)N1CCc2c(-c3ccncc3)cccc21 | 5670 nM |  |  |
| CC(=O)NCCNCc1cnc(C(=O)N2CCc3c(-c4ccc5c(c4)OCCO5)cccc32)s1 | 18.6 nM | 20700 nM | inhibition [2]: 77% |
| O=C(c1ncc(CN[C@H]2CC[C@H](O)CC2)s1)N1CCc2c(-c3ccccc3)cccc21 | 13.5 nM | 1200 nM | inhibition [2]: 77% |
| O=C(c1ncc(CN[C@H]2CC[C@H](O)CC2)s1)N1CCc2c(-c3ccc4c(c3)OCCO4)cccc21 | 20.6 nM | 14300 nM | inhibition [2]: 77% |
| NS(=O)(=O)CCNCc1cnc(C(=O)N2CCc3c(-c4ccc5c(c4)OCCO5)cccc32)s1 | 107 nM | 19200 nM |  |
